Read-outs that look alike come from different tables or passages of the source.

These results are taken from article doi:10.1101/2025.06.30.662286v4 (biorxiv, 2026).

The target in one assay is sc-apCC-4-LMF-1. The conditions noted are these: PBS pH 7.4, 10% v/v DMSO, 1 μM lumiflavin, 0-480 μM protein.
Assay [1] deals with sc-apCC-4-SN38-1. The assay is described as follows: fluorescence saturation binding. Set-up: species or system synthetic construct.
The target in assay [2] is sc-apCC-6-DPH-NR (P, promiscuous binder). Description: fluorescence saturation binding. Set-up: species or system synthetic construct. To be noted: PBS pH 7.4, 10% v/v MeCN, 0.5 μM ligand, 0-60 μM protein.
Assay [3] has as its target sc-apCC-6-NR (S, specific binder). The assay is described as follows: fluorescence saturation binding. Set-up: species or system synthetic construct. The conditions noted are these: PBS pH 7.4, 10% v/v MeCN, 0.5 μM ligand, 0-60 μM protein.
The next assay concerns the target sc-apCC-4-NR-1. Description: fluorescence intensity saturation binding. The arrangement: species or system synthetic construct. To be noted: PBS pH 7.4, 10% v/v MeCN, 0.5 μM Nile red, 0-60 μM protein.
Assay [4] deals with sc-apCC-4-SN38-1. Description: fluorescence saturation binding. The arrangement: species or system synthetic construct. To be noted: ABS pH 4, 10% v/v DMSO, 1 μM SN38, 0-480 μM protein.
Assay [5] concerns the target sc-apCC-4-DPH (highest-affinity DPH binder of Fig. 2; sc-apCC-4-DPH-1 or sc-apCC-4-DPH-2). The assay is described as follows: fluorescence intensity saturation binding. Set-up: species or system synthetic construct. To be noted: PBS pH 7.4, 10% v/v MeCN, 0.5 μM DPH, 0-60 μM protein.

The Kd is the concentration at which binding is half-saturated. `Cc1cc2nc3c(=O)[nH]c(=O)nc-3n(C)c2cc1C` [lumiflavin] showed a Kd on sc-apCC-4-LMF-1 of over 50000 nM.
Consider `CCN(CC)c1ccc2nc3c4ccccc4c(=O)cc-3oc2c1` [Nile red], for which the Kd is about 200 nM at sc-apCC-4-SN38-1 [1] (read-out: KD,Nile Red), 2200 ± 200 nM in assay [2], 110 ± 40 nM in assay [3] and 2400 ± 100 nM at sc-apCC-4-NR-1.
On to `CCc1c2c(nc3ccc(O)cc13)-c1cc3c(c(=O)n1C2)COC(=O)[C@]3(O)CC` [SN38], for which, at sc-apCC-4-SN38-1 [4], the Kd was determined as 7800 ± 600 nM.
With `CCN(CC)c1ccc2nc3c4ccccc4c(=N)cc-3oc2c1` [Nile blue], at sc-apCC-4-SN38-1 [1] (read-out: KD,Nile blue), the Kd was about 400 nM.
On to `C(=CC=Cc1ccccc1)C=Cc1ccccc1` [DPH, 1,6-diphenyl-1,3,5-hexatriene], for which the Kd is 1900 ± 200 nM in assay [2], 1200 ± 100 nM in assay [5] and over 20000 nM in assay [3].
